Structures are written as SMILES.

The target in the experiment is USP30 (Homo sapiens (Human), UniProt Q70CQ3). The experiment is described as follows: USP30 biochemical IC50 assay. To be noted: read-out: IC50 range; fluorescence polarisation, TAMRA labelled peptide linked to ubiquitin; 30 min pre-incubation, read after 2 hr. On the technique in general: Fluorescence polarisation rises when a labelled molecule tumbles more slowly, as on binding a larger partner.
Sequence of USP30 (Q70CQ3 57-517): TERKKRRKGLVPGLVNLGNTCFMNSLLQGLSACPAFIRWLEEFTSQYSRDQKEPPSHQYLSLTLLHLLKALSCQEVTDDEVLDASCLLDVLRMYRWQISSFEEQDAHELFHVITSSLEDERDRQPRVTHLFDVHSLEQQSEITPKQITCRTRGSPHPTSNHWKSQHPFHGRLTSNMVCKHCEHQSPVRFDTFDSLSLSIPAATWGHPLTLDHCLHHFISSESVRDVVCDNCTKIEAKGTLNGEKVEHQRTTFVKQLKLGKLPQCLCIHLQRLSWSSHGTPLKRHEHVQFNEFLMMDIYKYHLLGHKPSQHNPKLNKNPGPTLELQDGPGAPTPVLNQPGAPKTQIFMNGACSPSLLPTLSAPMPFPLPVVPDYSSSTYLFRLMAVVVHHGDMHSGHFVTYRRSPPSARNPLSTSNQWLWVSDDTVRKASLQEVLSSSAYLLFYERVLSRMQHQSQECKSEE
Procedure: USP30 Biochemical IC50 Assay
Dilution plates were prepared at 21 times the final concentration (2100 μM for a final concentration of 100 μM) in 50% DMSO in a 96-well polypropylene V-bottom plate (Greiner #651201). A typical 8-point dilution series to be 100, 30, 10, 3, 1, 0.3, 0.1, 0.03 μM final. Reactions were performed in duplicate in black 384 well plates (small volume, Greiner 784076) in a final reaction volume of 21 μl. Either 1 μl of 50% DMSO or diluted compound was added to the plate. USP30 was diluted in reaction buffer (40 mM Tris, pH 7.5, 0.005% Tween 20, 0.5 mg/ml BSA, 5 mM—beta-mercaptoethanol) to the equivalent of 0.05 μl/well and 10 μl of diluted USP30 was added to the compound. Enzyme and compound were incubated for 30 min at room temp. Reactions were initiated by the addition of 50 nM of TAMRA labelled peptide linked to ubiquitin via an iso-peptide bond as fluorescence polarisation substrate. Reactions were read immediately after addition of substrate and following a 2 hr incubation at room temperature. Readings were performed on a Pherastar Plus (BMG Labtech). λ Excitation 540 nm; λ Emission 590 nm.
In general, IC50 refers to the midpoint of a concentration-inhibition curve. For `COC1CN(c2cc(N3CCN([C@@H]4CCN(C#N)C4)S3(=O)=O)ccn2)C1` [Example 55, (R)-3-(5-(2-(3-methoxyazetidin-1-yl)pyridin-4-yl)-1,1-dioxido-1,2,5-thiadiazolidin-2-yl)pyrrolidine-1-carbonitrile], the IC50 fell in the range of 100 to 1000 nM.
To `COCCN(CCOC)c1cc(N2CCN([C@@H]3CCN(C#N)C3)S2(=O)=O)ccn1` [Example 56, (R)-3-(5-(2-(bis(2-methoxyethyl)amino)pyridin-4-yl)-1,1-dioxido-1,2,5-thiadiazolidin-2-yl)pyrrolidine-1-carbonitrile] belongs 100 to 1000 nM; to `N#CN1CCC(NS(=O)(=O)Nc2cccc(-c3ccccc3)c2)C1` (stereo not drawn) [Example 57, N-biphenyl-3-yl-N′-(1-cyanopyrrolidin-3-yl)sulfuric diamide], 100 to 1000 nM.
To `N#CN1CCC(NS(=O)(=O)Nc2ccc(-c3ccccc3)cc2)C1` (stereo not drawn) [Example 58, N-biphenyl-4-yl-N′-(1-cyanopyrrolidin-3-yl)sulfuric diamide] belongs 100 to 1000 nM; to `N#CN1CCC(NS(=O)(=O)N2CCC(c3ccccc3)CC2)C1` (stereo not drawn) [Example 59, N-(1-cyanopyrrolidin-3-yl)-4-phenylpiperidine-1-sulfonamide], 100 to 1000 nM; to `N#CN1CCC(NS(=O)(=O)N2CCN(c3ccccc3)CC2)C1` (stereo not drawn) [Example 60, N-(1-cyanopyrrolidin-3-yl)-4-phenylpiperazine-1-sulfonamide], 100 to 1000 nM.
To `N#CN1CCC(NS(=O)(=O)N2CCc3ccccc32)C1` (stereo not drawn) [Example 61, N-(1-cyanopyrrolidin-3-yl)indoline-1-sulfonamide] belongs 1000 to 10000 nM.
In the case of `N#CN1CC[C@@H](NS(=O)(=O)N2CCc3ccccc3C2)C1` [Example 62, (R)—N-(1-cyanopyrrolidin-3-yl)-3,4-dihydroisoquinoline-2(1H)-sulfonamide], the half-maximal inhibitory concentration (IC50) is 1000 to 10000 nM.
Take `N#CN1CC[C@@H](NS(=O)(=O)N2CCc3cc(-c4ccccc4)ccc32)C1` [Example 63, (R)—N-(1-cyanopyrrolidin-3-yl)-5-phenylindoline-1-sulfonamide]: the IC50 was in the range of 100 to 1000 nM.
Take `N#CN1CC[C@@H](NS(=O)(=O)N2CCc3c(-c4ccccc4)cccc32)C1` [Example 64, (R)—N-(1-cyanopyrrolidin-3-yl)-4-phenylindoline-1-sulfonamide]: the IC50 is 100 to 1000 nM.
With `COc1ccc2c(c1)CCN(S(=O)(=O)N[C@@H]1CCN(C#N)C1)C2` [Example 65, (R)—N-(1-cyanopyrrolidin-3-yl)-6-methoxy-3,4-dihydroisoquinoline-2(1H)-sulfonamide] the figure was 100 to 1000 nM; with `CN1c2ccccc2N([C@@H]2CCN(C#N)C2)S1(=O)=O` [Example 66, (R)-3-(3-methyl-2,2-dioxidobenzo[c][1,2,5]thiadiazol-1(3H)-yl)pyrrolidine-1-carbonitrile], 1000 to 10000 nM.
On to `N#CN1CC[C@@H](N2c3ccccc3N(Cc3ccccc3)S2(=O)=O)C1` [Example 67, (R)-3-(3-benzyl-2,2-dioxidobenzo[c][1,2,5]thiadiazol-1(3H)-yl)pyrrolidine-1-carbonitrile], for which the half-maximal inhibitory concentration (IC50) was 100 to 1000 nM.
With `N#CN1CC[C@@H](N2c3ccccc3N(Cc3cccnc3)S2(=O)=O)C1` [Example 68, (R)-3-(2,2-dioxido-3-(pyridin-3-ylmethyl)benzo[c][1,2,5]thiadiazol-1(3H)-yl)pyrrolidine-1-carbonitrile], the 50% inhibitory concentration (IC50) fell in the range of 1000 to 10000 nM.
Regarding `N#CN1CC[C@@H](N2Cc3ccccc3N(Cc3ccccc3)S2(=O)=O)C1` [Example 69, (R)-3-(1-benzyl-2,2-dioxido-1,4-dihydro-3H-benzo[c][1,2,6]thiadiazin-3-yl)pyrrolidine-1-carbonitrile], the IC50 fell in the range of 100 to 1000 nM.
Take `Cn1cc(-c2ccc3c(c2)NS(=O)(=O)N([C@@H]2CCN(C#N)C2)C3)cn1` [Example 71, (R)-3-(7-(1-methyl-1H-pyrazol-4-yl)-2,2-dioxido-1,4-dihydro-3H-benzo[c][1,2,6]thiadiazin-3-yl)pyrrolidine-1-carbonitrile]: the IC50 is 100 to 1000 nM.
Take `N#CN1CC[C@@H](N2Cc3ccc(-c4ccccc4)cc3NS2(=O)=O)C1` [Example 72, (R)-3-(2,2-dioxido-7-phenyl-1,4-dihydro-3H-benzo[c][1,2,6]thiadiazin-3-yl)pyrrolidine-1-carbonitrile]: the IC50 is 100 to 1000 nM.
To `CN1c2cc(-c3ccccc3)ccc2CN([C@@H]2CCN(C#N)C2)S1(=O)=O` [Example 73, (R)-3-(1-methyl-2,2-dioxido-7-phenyl-1,4-dihydro-3H-benzo[c][1,2,6]thiadiazin-3-yl)pyrrolidine-1-carbonitrile] belongs 100 to 1000 nM.
With `N#CN1CC[C@@H](N2Cc3cc(-c4ccccc4)ccc3NS2(=O)=O)C1` [Example 75, (R)-3-(2,2-dioxido-6-phenyl-1,4-dihydro-3H-benzo[c][1,2,6]thiadiazin-3-yl)pyrrolidine-1-carbonitrile] the figure was 1000 to 10000 nM; with `CN(c1ccccc1)S(=O)(=O)N(C)C1CCN(C#N)C1` (stereo not drawn) [Example 76, N-(1-cyanopyrrolidin-3-yl)-N,N′-dimethyl-N′-phenylsulfuric diamide], 1000 to 10000 nM; with `N#CN1CC[C@@H](N2Cc3cccc(N4CCOCC4)c3NS2(=O)=O)C1` [Example 77, (R)-3-(8-morpholino-2,2-dioxido-1,4-dihydro-3H-benzo[c][1,2,6]thiadiazin-3-yl)pyrrolidine-1-carbonitrile], 1000 to 10000 nM.

The record behind these values is patent US11091488B2 (MISSION THERAPEUTICS LIMITED, priority 2015, dated 2021).
